Results published in US12213485B2, “Synergistic methods of using benzoxaborole compounds and preservative gases as an antimicrobial for crops” (AGROFRESH INC., priority 2016, dated 2025).

How the values were obtained:
[1] = tested on: Botrytis cinerea (BOTRCI) on table grapes; experiment: In vivo disease severity on wound-inoculated table grapes, benzoxaborole and CO2 chamber treatment
Source text: (§1) The following experiments were used to determine synergy between benzoxaborole Compounds A, B, and/or C and preservative gases, such as carbon dioxide (CO2) and sulfur dioxide (SO2). Specific rates or any other unique conditions are noted within the corresponding results tables. Each experiment comprised an air-tight 36 liter (L) chamber (Fisher Scientific, P/N: 08-642-23C), fitted with a bulkhead septum port (Swagelok, P/N: SS-400-61, Solon, OH) used for treatment delivery, as well as for monitoring (using needle extraction) carbon dioxide (CO2), sulfur dioxide (SO2), oxygen (O2) or other headspace samples. A variable speed fan (Thermaltake, Mobile Fan II, P/N: A1888, Taipei City, Taiwan) set to low was also used to circulate the headspace atmosphere.
(§2) Similarly, table grape fruits were also tested in vivo. More specifically, 16-20 table grapes per repetition were washed and inoculated with pathogens (as described above for the strawberries). However, an ethanol-sterilized push pin, rather than a T15 screwdriver, was used to wound the stem-end of the grapes. The grapes were inoculated in the wound, and then arranged inside a 1-pint clamshell.
(§3) For treatment, the inoculated agar plates and clamshells containing fruits (e.g., strawberries and grapes) were placed inside a 36 L experimental chamber unit, which was then sealed prior to commencement of compound treatments. The chamber remained sealed throughout the duration of the experiment except for addition of treatment to the chamber, and post-treatment ventilation.
(§4) Benzoxaborole Compound A or Compound B was dissolved in acetone and dispensed onto a 60 mm Whatman #1 filter paper disk using a pipette. The acetone was permitted to evaporate for five minutes before the disk was placed on a watch glass in each chamber.
(§5) A 12% CO2 headspace treatment was then established in the chamber by permitting 10 grams (g) of crushed dry ice placed in a weigh boat in the chamber to evaporate in the sealed chamber. However, the bulkhead port of the chamber was loosened to permit the release of internal pressure. Optionally, a fan was used during the initial hours of treatment (i.e., up to about 6 hours of treatment) to ensure uniform treatment exposure of fruits and plates.
(§6) Untreated controls and CO2 treated chambers contained an acetone-treated disk with similar evaporation for five minutes. CO2 and O2 levels in the chamber were monitored using a handheld gas detector (Dansensor Checkpoint II; P/N 600111, Ringsted, Denmark). Temperature and relative humidity were also monitored within the chamber using data loggers (Onset HOBO; P/N U12-013, Bourne, MA).
(§7) The chamber for all in vitro and in vivo experiments was held at room temperature (i.e., from about 21° C. to about 23° C.) typically for about 3.5 days (i.e., about 84 hours) of treatment exposure. Chambers were then vented. After an additional 2-3 days with the chamber at room temperature, post-treatment radial growth (in mm) of each in vitro pathogen (see Examples 1-7, Tables 1-7) was measured on the inoculated plates using electronic calipers (Mitutoyo, P/N: CD-6-CX, Aurora, IL). In addition, the point of inoculation on fruits was assessed for indication of in vivo disease incidence (e.g., yes or no) and severity of disease incidence (see Examples 8-16, Tables 8-16). Disease severity was rated on a scale ranging from 0 to 4, where “0” indicated no disease severity, “1” indicated minimal disease severity, “2” indicated medium disease severity, “3” indicated high disease severity, and “4” indicated exceptionally high disease severity. […]

[2] = tested on: Penicillium expansum (PENIEX) on table grapes; experiment: as above
Source text: as §1, §2, §3, §4, §5, §6, §7

[3] = tested on: Botrytis cinerea (BOTRCI); experiment: In vitro fungal growth on inoculated agar plates, benzoxaborole and CO2 chamber treatment; type: cell-based
Source text: as §1
(§8) In vitro and in vivo experiments were performed concurrently in triple replicates (i.e., triplicate) unless otherwise noted. For in vitro experiments, a single 6-well microtiter plate or three, 10-cm petri plates each containing half strength Potato Dextrose Agar were prepared. Each well or plate was inoculated with 1 microliter (μL) of 1×10^5 spores/ml of the appropriate pathogenic spore suspension (e.g., Botrytis cinerea, BOTRCI; Penicillium expansum, PENIEX; Mucor piriformis, MUCOPI; Fusarium sambucinum FUSASA; or Aspergillus brasiliensis, ASPEBR). The inoculated microtiter or petri plates were then sealed with a breathable film (AeraSeal; P/N: B-100, Excel Scientific, Victorville, CA).
as §3, §4, §5, §6, §7

[4] = tested on: Mucor piriformis (MUCOPI); experiment: as above; type: cell-based
Source text: as §1, §8, §3, §4, §5, §6, §7

[5] = tested on: Fusarium sambucinum (FUSASA); experiment: as above; type: cell-based
Source text: as §1, §8, §3, §4, §5, §6, §7

[6] = tested on: Aspergillus brasiliensis (ASPEBR); experiment: as above; type: cell-based
Source text: as §1, §8, §3, §4, §5, §6, §7

[7] = tested on: Penicillium expansum (PENIEX); experiment: as above; type: cell-based
Source text: as §1, §8, §3, §4, §5, §6, §7

[8] = Table 1, compound 0.14 mg/L + 12% CO2, Colby equation E=x+y−x*y/100
[9] = Table 1, compound 0.14 mg/L + 12% CO2, evaluated 2 days after treatment completion, 6-well microtiter plate, 4 replicates, fan first 6 hours
[10] = Table 1, compound alone 0.14 mg/L, evaluated 2 days after treatment completion, 6-well microtiter plate, 4 replicates, fan first 6 hours
[11] = Table 3, compound 0.14 mg/L + 12% CO2, Colby equation E=x+y−x*y/100
[12] = Table 3, compound 0.14 mg/L + 12% CO2, evaluated 2 days after treatment, 6-well microtiter plate, fan first 6 hours, >90% R.H.
[13] = Table 3, compound alone 0.14 mg/L, evaluated 2 days after treatment, 6-well microtiter plate, fan first 6 hours, >90% R.H.
[14] = Table 4, compound 0.14 mg/L + 12% CO2, Colby equation E=x+y−x*y/100
[15] = Table 4, compound 0.14 mg/L + 12% CO2, evaluated 2 days after treatment completion, 6-well microtiter plate, fan first 6 hours
[16] = Table 4, compound alone 0.14 mg/L, evaluated 2 days after treatment completion, 6-well microtiter plate, fan first 6 hours
[17] = Table 5, compound 0.14 mg/L + 12% CO2, Colby equation E=x+y−x*y/100
[18] = Table 5, compound 0.14 mg/L + 12% CO2, evaluated 2 days after treatment, 6-well plate, fan first 6 hours, >90% R.H.
[19] = Table 5, compound alone 0.14 mg/L, evaluated 2 days after treatment, 6-well plate, fan first 6 hours, >90% R.H.

OB1OCc2cc(F)ccc21 [Compound A]
Colby Calculation ([1]; Table 15, compound 0.035 mg/L + 12% CO2, Colby equation E=x+y−x*y/100): 115.2
Growth (Severity, 0 to 4) Cmpd + 12% CO2 ([1]; Table 15, compound 0.035 mg/L + 12% CO2, evaluated 1 day after treatment, fan continuous): 0.7
Growth (Severity, 0 to 4) Cmpd ([1]; Table 15, compound alone 0.035 mg/L, evaluated 1 day after treatment, fan continuous): 0.9
Colby Calculation ([2]; Table 16, compound 0.035 mg/L + 12% CO2, Colby equation E=x+y−x*y/100): 108.2
Growth (Severity, 0 to 4) Cmpd + 12% CO2 ([2]; Table 16, compound 0.035 mg/L + 12% CO2, evaluated 1 day after treatment, fan continuous): 1.3
Growth (Severity, 0 to 4) Cmpd ([2]; Table 16, compound alone 0.035 mg/L, evaluated 1 day after treatment, fan continuous): 1.8
Colby Calculation [3, 8]: 165.4
Growth (diameter, mm) Cmpd + 12% CO2 [3, 9]: 0.0 mm
Growth (diameter, mm) Cmpd [3, 10]: 16.3 mm
Colby Calculation [3, 11]: 101.2
Growth (diameter, mm) Cmpd + 12% CO2 [3, 12]: 4.5 mm
Growth (diameter, mm) Cmpd [3, 13]: 5.5 mm
Colby Calculation [3, 14]: 104.3
Growth (diameter, mm) Cmpd + 12% CO2 [3, 15]: 0.0 mm
Growth (diameter, mm) Cmpd [3, 16]: 1.5 mm
Colby Calculation [3, 17]: 102.9
Growth (diameter, mm) Cmpd + 12% CO2 [3, 18]: 3.0 mm
Growth (diameter, mm) Cmpd [3, 19]: 3.6 mm
Colby Calculation ([3]; Table 6, compound 0.14 mg/L + 12% CO2, Colby equation E=x+y−x*y/100): 108.2
Growth (diameter, mm) Cmpd + 12% CO2 ([3]; Table 6, compound 0.14 mg/L + 12% CO2, evaluated 3 days after treatment, 10 cm petri plates, fan continuous): 6.4 mm
Growth (diameter, mm) Cmpd ([3]; Table 6, compound alone 0.14 mg/L, evaluated 3 days after treatment, 10 cm petri plates, fan continuous): 13.2 mm
Colby Calculation [4, 11]: 189.0
Growth (diameter, mm) Cmpd + 12% CO2 [4, 12]: 11.0 mm
Growth (diameter, mm) Cmpd [4, 13]: 22.3 mm
Colby Calculation [5, 17]: 104.0
Growth (diameter, mm) Cmpd + 12% CO2 [5, 18]: 3.8 mm
Growth (diameter, mm) Cmpd [5, 19]: 5.0 mm
Colby Calculation [6, 17]: 108.3
Growth (diameter, mm) Cmpd + 12% CO2 [6, 18]: 0.0 mm
Growth (diameter, mm) Cmpd [6, 19]: 2.6 mm
Colby Calculation [7, 8]: 225.0
Growth (diameter, mm) Cmpd + 12% CO2 [7, 9]: 3.3 mm
Growth (diameter, mm) Cmpd [7, 10]: 17.0 mm
Colby Calculation ([7]; Table 2, compound 0.14 mg/L + 12% CO2, Colby equation E=x+y−x*y/100): 119.7
Growth (diameter, mm) Cmpd + 12% CO2 ([7]; Table 2, compound 0.14 mg/L + 12% CO2, evaluated 2 days after treatment, 6-well microtiter plate, fan first 6 hours, >90% R.H.): 5.2 mm
Growth (diameter, mm) Cmpd ([7]; Table 2, compound alone 0.14 mg/L, evaluated 2 days after treatment, 6-well microtiter plate, fan first 6 hours, >90% R.H.): 9.7 mm
Colby Calculation [7, 14]: 124.4
Growth (diameter, mm) Cmpd + 12% CO2 [7, 15]: 0.5 mm
Growth (diameter, mm) Cmpd [7, 16]: 6.4 mm
Colby Calculation [7, 17]: 102.5
Growth (diameter, mm) Cmpd + 12% CO2 [7, 18]: 8.6 mm
Growth (diameter, mm) Cmpd [7, 19]: 10.2 mm
Colby Calculation ([7]; Table 7, compound 0.035 mg/L + 12% CO2, Colby equation E=x+y−x*y/100): 114.7
Growth (diameter, mm) Cmpd + 12% CO2 ([7]; Table 7, compound 0.035 mg/L + 12% CO2, evaluated 3 days after treatment, 10 cm Petri plates, fan continuous): 4.7 mm
Growth (diameter, mm) Cmpd ([7]; Table 7, compound alone 0.035 mg/L, evaluated 3 days after treatment, 10 cm Petri plates, fan continuous): 10.6 mm
